EP1908472A1, “Silicon derivatives for PET imaging” (Bayer Schering Pharma Aktiengesellschaft, priority 2006, dated 2008)

What was measured:
[1] = Hydrolytic stability of 19F fluorosilanes (hydrolysis to the hydroxy compound) at physiological pH; format: physicochemical; settings: for remaining at 6 h / half-life: buffer; for remaining at 6 h: fraction of intact 19F compound after 6 hours under hydrolytic conditions at pH 7; for half-life: hydrolytic halflife, physiological pH (7.0), 19F compound, calculated from the kinetics; for rel. stability: ratio of hydrolytic halflife to radioactive halflife of 18-F (1.83 hours), pH 7.0
Description: The time dependent degree of hydrolysis of compounds of formula I in which X is a fluorine atom of isotope 19 to compounds of formula I in which X is a hydroxy group was determined at physiological pH (7.0). From the kinetics the hydrolytic halflife (t1/2) measured in hours [h] of compounds of formula I in which X is a fluorine atom of isotope 19 were calculated (Table 1, column 2).
The ratio of the hydrolytic halflifes of compounds of formula I in which X is a fluorine atom of isotope 19 and the radioactive halflife of the 18-F isotope (1.83 hours) is defined as relative stability (Table 1, column 3).
After 6 hours 90% of the 18-F isotope have been decayed.
Compounds of formula I in which X is a fluorine atom of isotope 18 are considered as useful for PET applications if the relative stability of their analogs bearing a fluorine atom of isotope 19 exceed a factor of four and if at least 50% of these compounds remain intact after 6 hours under hydrolytic conditions at pH 7.

[2] = rats allowed to inhale the gas; shows fast release of fluoride in vivo; cited from earlier work

Compound: CC(C)[Si](F)(c1ccc(COC2CCCCO2)cc1)C(C)C (racemic) [3a - F, (RS)-Fluoro-diisopropyl-[4-(tetrahydro-pyran-2-yloxymethyl)-phenyl]-silane]
- remaining at 6 h [1]: 90%
- half-life [1]: 2960 min
- rel. stability [1]: 27.0

Compound: CC(C)[Si](F)(c1ccc(CCOC2CCCCO2)cc1)C(C)C (racemic) [3b - F, (RS)-Fluoro-diisopropyl-{4-[2-(tetrahydro-pyran-2-yloxy)-ethyl]-phenyl}-silane]
- remaining at 6 h [1]: 94%
- half-life [1]: 4580 min
- rel. stability [1]: 41.8

Compound: CC(C)[Si](F)(c1ccc(CCCOC2CCCCO2)cc1)C(C)C (racemic) [3c - F, (RS)-Fluoro-diisopropyl-{4-[3-(tetrahydro-pyran-2-yloxy)-propyl]-phenyl}-silane]
- remaining at 6 h [1]: 95%
- half-life [1]: 5990 min
- rel. stability [1]: 54.6

Compound: CC(C)[Si](F)(c1cccc(CCCOC2CCCCO2)c1)C(C)C (racemic) [3d - F, (RS)-Fluoro-diisopropyl-{3-[3-(tetrahydro-pyran-2-yloxy)-propyl]-phenyl}-silane]
- remaining at 6 h [1]: > 95%
- half-life [1]: > 6000 min
- rel. stability [1]: > 54.6

Compound: CC(C)[Si](F)(c1cccc(CCOC2CCCCO2)c1)C(C)C (racemic) [3e - F, (RS)-Fluoro-diisopropyl-{3-[2-(tetrahydro-pyran-2-yloxy)-ethyl]-phenyl}-silane]
- remaining at 6 h [1]: > 95%
- half-life [1]: > 6000 min
- rel. stability [1]: > 54.6

Compound: F[Si](c1ccccc1)(c1ccccc1)c1ccc(CCOC2CCCCO2)cc1 (racemic) [3f - F, (RS)-Fluoro-diphenyl-{4-[2-(tetrahydro-pyran-2-yloxy)-ethyl]-phenyl}-silane]
- remaining at 6 h [1]: < 1%
- half-life [1]: 4.2 min
- rel. stability [1]: 0.04

Compound: CC(C)C[Si](F)(CC(C)C)c1ccc(COC2CCCCO2)cc1 (racemic) [Compound 3g-F, (RS)-Fluoro-diisobutyl-[4-(tetrahydro-pyran-2-yloxymethyl)-phenyl]-silane]
- remaining at 6 h [1]: 59%
- half-life [1]: 486 min
- rel. stability [1]: 4.5

Compound: CC(C)C[Si](F)(CC(C)C)c1ccc(CCOC2CCCCO2)cc1 (racemic) [Compound 3h-F, (RS)-Fluoro-diisobutyl-{4-[2-(tetrahydro-pyran-2-yloxy)-ethyl]-phenyl}-silane]
- remaining at 6 h [1]: 79%
- half-life [1]: 1150 min
- rel. stability [1]: 10.7

Compound: CC(C)[Si](F)(c1ccc(CO)cc1)C(C)C [4a -F, [4-(Fluoro-diisopropyl-silanyl)-phenyl]-methanol]
- remaining at 6 h [1]: 85%
- half-life [1]: 1690 min
- rel. stability [1]: 15.4

Compound: CC(C)[Si](F)(c1ccc(CCO)cc1)C(C)C [4b - F, 2-[4-(Fluoro-diisopropyl-silanyl)-phenyl]-ethanol]
- remaining at 6 h [1]: 84%
- half-life [1]: 4010 min
- rel. stability [1]: 36.5

Compound: CC(C)[Si](F)(c1ccc(CCCO)cc1)C(C)C [4c - F, 3-[4-(Fluoro-diisopropyl-silanyl)-phenyl]-propan-1-ol]
- remaining at 6 h [1]: 90%
- half-life [1]: > 6000 min
- rel. stability [1]: > 54.6

Compound: CC(C)[Si](F)(c1cccc(CCCO)c1)C(C)C [4d - F, 3-[3-(Fluoro-diisopropyl-silanyl)-phenyl]-propan-1-ol]
- remaining at 6 h [1]: 89%
- half-life [1]: 2600 min
- rel. stability [1]: 23.7

Compound: CC(C)[Si](F)(c1cccc(CCO)c1)C(C)C [4e - F, 2-[3-(Fluoro-diisopropyl-silanyl)-phenyl]-ethanol]
- remaining at 6 h [1]: 78%
- half-life [1]: 1400 min
- rel. stability [1]: 12.7

Compound: CC(C)[Si](F)(c1ccc(C(=O)O)cc1)C(C)C [5a - F, 4-(Fluoro-diisopropyl-silanyl)-benzoic acid]
- remaining at 6 h [1]: 66%
- half-life [1]: 654 min
- rel. stability [1]: 6.1

Compound: CC(C)[Si](F)(c1ccc(CC(=O)O)cc1)C(C)C [5b - F, [4-(Fluoro-diisopropyl-silanyl)-phenyl]-acetic acid]
- remaining at 6 h [1]: 82%
- half-life [1]: 1480 min
- rel. stability [1]: 13.5

Compound: CC(C)[Si](F)(c1ccc(CCC(=O)O)cc1)C(C)C [5c - F, 3-[4-(Fluoro-diisopropyl-silanyl)-phenyl]-propionic acid]
- remaining at 6 h [1]: 92%
- half-life [1]: 3540 min
- rel. stability [1]: 32.2

Compound: CC(C)[Si](F)(c1cccc(CCC(=O)O)c1)C(C)C [5d - F, 3-[3-(Fluoro-diisopropyl-silanyl)-phenyl]-propionic acid]
- remaining at 6 h [1]: 81%
- half-life [1]: 1330 min
- rel. stability [1]: 12.1

Compound: CC(C)[Si](F)(c1cccc(CC(=O)O)c1)C(C)C [5e - F, [3-(Fluoro-diisopropyl-silanyl)-phenyl]-acetic acid]
- remaining at 6 h [1]: 78%
- half-life [1]: 1200 min
- rel. stability [1]: 10.9

Compound: CC(C)C[Si](F)(CC(C)C)c1ccc(C(=O)O)cc1 [5g - F, 4-(Fluoro-diisobutyl-silanyl)-benzoic acid]
- remaining at 6 h [1]: 31%
- half-life [1]: 210 min
- rel. stability [1]: 1.9

Compound: CC(C)C[Si](F)(CC(C)C)c1ccc(CC(=O)O)cc1 [5h - F, [4-(Fluoro-diisobutyl-silanyl)-phenyl]-acetic acid]
- remaining at 6 h [1]: 61%
- half-life [1]: 522 min
- rel. stability [1]: 4.8

Compound: CC(C)[Si](F)(CCCNC(=O)c1ccccc1)C(C)C [22 - F, N-[3-(Fluoro-diisopropyl-silanyl)-propyl]-benzamide]
- remaining at 6 h [1]: 83%
- half-life [1]: 2020 min
- rel. stability [1]: 18.4

Compound: CC(C)C[Si](F)(CCCCC(=O)Nc1ccccc1)CC(C)C [30a - 1F, 5-(Fluoro-diisobutyl-silanyl)-pentanoic acid phenylamide]
- remaining at 6 h [1]: 71%
- half-life [1]: 828 min
- rel. stability [1]: 7.5

Compound: C[Si](C)(C)[18F] [^18F-Fluorotrimethylsilane]
- uptake of ^18F in the bone [2]: extensive uptake of ^18F in the bone
